Laboratory results published in publication PMC6984391, “Anion carriers as potential treatments for cystic fibrosis: transport in cystic fibrosis cells, and additivity to channel-targeting drugs” (Chemical Science, 2019).

Key:
Type in all cases: cell-based
wild-type human CFTR = molecular target: T1, wild-type human CFTR (Homo sapiens, UniProt P13569); assay: CFTR-mediated anion transport in WT-CFTR-YFP-FRT cells; settings: forskolin 10 μM; CFTRinh-172 10 μM
T1 construct: expressed in transfected cells
T1 sequence (P13569 whole entry): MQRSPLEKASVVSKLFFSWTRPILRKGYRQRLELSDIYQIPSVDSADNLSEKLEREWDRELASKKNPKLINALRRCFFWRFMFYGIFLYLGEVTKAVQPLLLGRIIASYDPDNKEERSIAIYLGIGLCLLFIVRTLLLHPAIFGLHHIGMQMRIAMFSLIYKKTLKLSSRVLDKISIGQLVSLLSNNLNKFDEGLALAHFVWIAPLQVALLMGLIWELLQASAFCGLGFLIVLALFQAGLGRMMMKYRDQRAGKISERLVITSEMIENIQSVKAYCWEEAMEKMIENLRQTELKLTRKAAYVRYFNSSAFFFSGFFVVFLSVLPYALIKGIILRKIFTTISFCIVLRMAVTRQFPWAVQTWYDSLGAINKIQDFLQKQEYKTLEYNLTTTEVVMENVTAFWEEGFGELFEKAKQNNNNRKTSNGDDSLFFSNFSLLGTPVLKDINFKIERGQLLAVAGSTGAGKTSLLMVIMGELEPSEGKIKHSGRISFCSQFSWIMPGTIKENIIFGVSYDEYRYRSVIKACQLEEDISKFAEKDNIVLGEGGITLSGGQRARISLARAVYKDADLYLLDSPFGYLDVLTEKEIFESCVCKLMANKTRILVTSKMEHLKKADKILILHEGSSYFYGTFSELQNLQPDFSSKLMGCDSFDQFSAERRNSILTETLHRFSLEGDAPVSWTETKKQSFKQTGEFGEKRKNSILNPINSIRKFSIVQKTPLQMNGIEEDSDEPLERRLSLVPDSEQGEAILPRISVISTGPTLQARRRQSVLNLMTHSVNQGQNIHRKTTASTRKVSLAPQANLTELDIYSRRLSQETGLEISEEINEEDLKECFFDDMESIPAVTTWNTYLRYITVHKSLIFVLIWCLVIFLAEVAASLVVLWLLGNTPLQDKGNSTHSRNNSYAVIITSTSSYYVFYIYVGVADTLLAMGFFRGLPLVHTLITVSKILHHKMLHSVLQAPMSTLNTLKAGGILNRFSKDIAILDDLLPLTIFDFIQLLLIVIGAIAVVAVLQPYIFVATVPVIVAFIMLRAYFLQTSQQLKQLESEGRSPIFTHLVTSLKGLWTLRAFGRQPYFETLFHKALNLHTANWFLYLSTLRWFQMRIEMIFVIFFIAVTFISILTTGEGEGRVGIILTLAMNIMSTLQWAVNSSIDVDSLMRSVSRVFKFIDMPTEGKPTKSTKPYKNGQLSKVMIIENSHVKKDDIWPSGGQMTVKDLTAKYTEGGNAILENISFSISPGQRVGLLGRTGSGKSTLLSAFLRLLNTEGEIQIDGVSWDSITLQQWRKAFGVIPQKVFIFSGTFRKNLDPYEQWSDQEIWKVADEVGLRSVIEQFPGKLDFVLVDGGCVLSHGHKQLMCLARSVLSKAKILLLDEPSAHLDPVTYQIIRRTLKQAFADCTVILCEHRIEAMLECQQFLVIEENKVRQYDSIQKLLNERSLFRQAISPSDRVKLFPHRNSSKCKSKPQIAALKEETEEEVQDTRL
Experimental: Next, we sought to learn whether the activities of 11, 12, 15, and 19 are additive to that of CFTR. For these studies, we used FRT cells co-expressing wild-type human CFTR and YFP-H148Q/I152L (WT-CFTR-YFP-FRT cells).[28] […] This latter effect is difficult to explain and merits further investigation. […]
the PBS bathing cells 10 minutes prior to PBS iodide addition, whereas UTP was added to cells with the PBS iodide solution. Fluorescence was measured for 14 seconds; 2 seconds before and 12 seconds after injection of 110 µl PBS iodide solution (137 mM Cl- replaced by I-) into each well (to obtain a final concentration of I- of 100 mM).
We expressed cell fluorescence values (F) relative to the fluorescence value immediately before I- injection (F0), excluding the initial decrease, which likely represents the quenching of extracellular YFP released from cells and signal reduction accompanying the increase in solution volume bathing cells. To quantify anion transport by test anionophores, we determined the initial slope of the fluorescence decay following I - addition by fitting first order exponential functions to the last 12 seconds of each fluorescence recording. […]
fluorescence microscopy as described previously.10 In brief, YFP-FRT cells were washed 3x with PBS before transfer to a perfusion chamber mounted on the stage of a Leica DM IRB microscope. […]

[1] = molecular target: T2, Ca^2+-activated Cl^– channel (CaCC) (Homo sapiens, UniProt Q5XXA6); assay: CaCC-mediated anion transport in YFP-CFBE cells; settings: UTP 1 mM; CaCCinh-A01 10 μM
T2 construct: endogenous in cells; host or cells: CFBE41o- cells stably expressing YFP (YFP-CFBE cells)
T2 sequence (Q5XXA6 1-986): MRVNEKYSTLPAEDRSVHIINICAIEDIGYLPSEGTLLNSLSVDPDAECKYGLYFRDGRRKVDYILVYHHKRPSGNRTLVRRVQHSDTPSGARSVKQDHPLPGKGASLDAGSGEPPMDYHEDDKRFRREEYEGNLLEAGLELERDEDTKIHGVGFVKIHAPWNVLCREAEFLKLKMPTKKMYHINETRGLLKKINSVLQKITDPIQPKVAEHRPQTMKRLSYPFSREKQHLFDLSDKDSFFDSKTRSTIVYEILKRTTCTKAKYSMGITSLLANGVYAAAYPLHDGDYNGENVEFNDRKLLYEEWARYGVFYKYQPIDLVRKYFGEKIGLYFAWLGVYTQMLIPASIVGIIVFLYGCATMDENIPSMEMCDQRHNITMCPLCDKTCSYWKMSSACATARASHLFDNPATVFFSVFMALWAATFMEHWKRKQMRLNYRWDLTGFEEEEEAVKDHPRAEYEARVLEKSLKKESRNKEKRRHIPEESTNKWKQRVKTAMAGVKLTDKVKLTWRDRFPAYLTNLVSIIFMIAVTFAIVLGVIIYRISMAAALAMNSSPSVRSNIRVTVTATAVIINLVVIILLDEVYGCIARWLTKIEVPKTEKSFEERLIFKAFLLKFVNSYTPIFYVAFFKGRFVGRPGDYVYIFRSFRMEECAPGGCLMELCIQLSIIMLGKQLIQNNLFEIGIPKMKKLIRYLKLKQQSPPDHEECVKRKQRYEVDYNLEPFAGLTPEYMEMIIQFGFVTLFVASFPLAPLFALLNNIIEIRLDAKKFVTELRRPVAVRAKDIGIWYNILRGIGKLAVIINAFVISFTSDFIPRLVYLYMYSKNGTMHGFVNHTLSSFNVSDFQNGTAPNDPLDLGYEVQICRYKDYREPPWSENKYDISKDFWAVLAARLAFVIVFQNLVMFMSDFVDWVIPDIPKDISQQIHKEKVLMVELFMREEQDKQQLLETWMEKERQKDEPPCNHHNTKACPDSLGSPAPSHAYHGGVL
Experimental: (for chemical structure, see ESI Fig. S15 ^†).
the PBS bathing cells 10 minutes prior to PBS iodide addition, whereas UTP was added to cells with the PBS iodide solution. Fluorescence was measured for 14 seconds; 2 seconds before and 12 seconds after injection of 110 l PBS iodide solution (137 mM Cl- replaced by I-) into each well (to obtain a final concentration of I- of 100 mM).
fluorescence microscopy as described previously.10 In brief, YFP-FRT cells were washed 3x with PBS before transfer to a perfusion chamber mounted on the stage of a Leica DM IRB microscope. […] Any anionophore not incorporated into YFP-FRT cell membranes was removed from the chamber by perfusion with PBS when fluorescence measurements commenced. […]
Fluorescence quenching by the anionophore vehicle DMSO was subtracted from each test measurement. […]

F508del-CFTR = molecular target: T3, F508del-CFTR (Homo sapiens, UniProt P13569, DEL508-508); assay: F508del-CFTR-mediated anion transport in F508del-CFTR-YFP-FRT cells; settings: forskolin 10 μM, cells grown at 37 °C
T3 construct: expressed in transfected cells
T3 sequence (P13569 with tags, fused parts or gaps DEL508-508): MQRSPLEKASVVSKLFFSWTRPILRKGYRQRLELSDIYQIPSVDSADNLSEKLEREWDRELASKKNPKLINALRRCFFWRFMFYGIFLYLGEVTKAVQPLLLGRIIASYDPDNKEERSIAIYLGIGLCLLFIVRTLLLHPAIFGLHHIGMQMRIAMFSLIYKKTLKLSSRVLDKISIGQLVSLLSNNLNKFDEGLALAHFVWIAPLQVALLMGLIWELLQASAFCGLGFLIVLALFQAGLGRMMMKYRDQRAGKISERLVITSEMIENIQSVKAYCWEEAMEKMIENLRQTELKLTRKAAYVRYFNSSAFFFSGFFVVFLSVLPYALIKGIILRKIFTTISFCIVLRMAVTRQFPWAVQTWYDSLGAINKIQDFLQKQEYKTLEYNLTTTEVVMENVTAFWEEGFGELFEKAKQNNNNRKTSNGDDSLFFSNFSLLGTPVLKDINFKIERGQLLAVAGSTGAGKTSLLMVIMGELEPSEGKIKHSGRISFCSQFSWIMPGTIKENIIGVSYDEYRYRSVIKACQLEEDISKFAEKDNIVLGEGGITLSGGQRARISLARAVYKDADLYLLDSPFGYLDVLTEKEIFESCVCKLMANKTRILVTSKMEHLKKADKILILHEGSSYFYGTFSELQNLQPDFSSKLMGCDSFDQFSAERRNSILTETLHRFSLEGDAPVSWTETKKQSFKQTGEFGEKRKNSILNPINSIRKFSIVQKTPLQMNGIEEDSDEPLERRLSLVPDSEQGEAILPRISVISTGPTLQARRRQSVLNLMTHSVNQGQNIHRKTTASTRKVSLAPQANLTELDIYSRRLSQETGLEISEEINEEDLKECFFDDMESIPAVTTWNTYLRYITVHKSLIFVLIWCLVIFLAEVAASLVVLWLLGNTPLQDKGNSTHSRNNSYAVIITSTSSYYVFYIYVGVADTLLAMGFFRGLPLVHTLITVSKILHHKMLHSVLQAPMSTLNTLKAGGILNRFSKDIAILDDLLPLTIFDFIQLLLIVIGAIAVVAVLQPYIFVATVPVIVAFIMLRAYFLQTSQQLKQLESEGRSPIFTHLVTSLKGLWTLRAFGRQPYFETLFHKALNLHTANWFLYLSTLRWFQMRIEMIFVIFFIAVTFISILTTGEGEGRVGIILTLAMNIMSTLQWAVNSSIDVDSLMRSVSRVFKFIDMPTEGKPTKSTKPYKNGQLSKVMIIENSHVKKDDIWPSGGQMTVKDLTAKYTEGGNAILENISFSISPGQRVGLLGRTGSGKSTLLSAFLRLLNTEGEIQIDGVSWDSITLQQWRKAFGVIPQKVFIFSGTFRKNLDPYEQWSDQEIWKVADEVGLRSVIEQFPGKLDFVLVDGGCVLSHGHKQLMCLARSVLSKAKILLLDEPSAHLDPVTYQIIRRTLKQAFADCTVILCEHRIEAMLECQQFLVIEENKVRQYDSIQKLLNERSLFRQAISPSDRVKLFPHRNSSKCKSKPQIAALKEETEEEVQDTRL
Text: To learn whether anionophores are additive to small molecules that rescue disease-causing CFTR variants, we used FRT cells co-expressing F508del-CFTR, the predominant CF mutation and YFP-H148Q/I152L (F508del-CFTR-YFP-FRT cells).[28] To rescue the plasma membrane expression of F508del-CFTR, we used low temperature or the clinically-licensed CFTR corrector lumacaftor,[38],[39] while to increase its activity, we used the clinically-licensed CFTR potentiator ivacaftor.[40]
FRT cells stably expressing the halide sensor YFP-H148Q/I152L6 were generous gifts of AS Verkman (University of California, San Francisco), while CFBE41o- cells7 stably expressing YFP (YFP-CFBE cells) were a generous gift of LJV Galietta (Telethon Institute for Genetics and Medicine). YFP-FRT cells were cultured as described previously for FRT cells8 except that media contained 10% fetal bovine serum, 2 mM L-glutamine and the selection agent G418 (YFP-FRT cells, 0.5 mg ml-1; WT-CFTR-YFP-FRT cells, 0.75 mg ml-1) or zeocin (F508del-CFTR-YFP-FRT cells, 0.5 mg ml-1). […]
For fluorescence microplate reader studies, cells were seeded in 96-well plates and grown in culture media at 37 °C in a humidified atmosphere with 5% CO2 for 3 – 4 days until 90% confluent. […] For fluorescence microscopy studies, YFP -FRT cells were plated on glass coverslips an d used 4 – 5 days later when cell confluency was 80%.
Fluorescence plate reader assay […]
quenching of YFP fluorescence at 37 °C using a microplate reader following the method of Galietta et al..9 The microplate reader (model: FLUORstar Omega; BMG LABTECH Ltd., Aylesbury, UK) was equipped with a syringe pump and excitation (500 ± 10 nm) and emission (535 ± 15 nm) filters (Chroma Technology GmbH, Olching, Germany). […]
the PBS bathing cells 10 minutes prior to PBS iodide addition, whereas UTP was added to cells with the PBS iodide solution. Fluorescence was measured for 14 seconds; 2 seconds before and 12 seconds after injection of 110 µl PBS iodide solution (137 mM Cl- replaced by I-) into each well (to obtain a final concentration of I- of 100 mM). […]

SMILES | effect on anion transport in WT-CFTR-YFP-FRT cells (wild-type human CFTR) | effect on CaCC activity [1] | anion transport in control F508del-CFTR-YFP-FRT cells (F508del-CFTR)
O=C(O)c1ccc(/C=C2\SC(=S)N(c3cccc(C(F)(F)F)c3)C2=O)cc1 [CFTRinh-172] | inhibited, albeit incompletely |  | 
O=c1ccn([C@@H]2O[C@H](COP(=O)(O)OP(=O)(O)OP(=O)(O)O)[C@@H](O)[C@H]2O)c(=O)[nH]1 [UTP] |  | activated little CaCC activity | 
C=C[C@@]1(C)CC(=O)[C@]2(O)[C@@]3(C)[C@@H](O)CCC(C)(C)[C@@H]3[C@H](O)[C@H](OC(C)=O)[C@@]2(C)O1 [forskolin] | robustly stimulated anion transport |  | little effect
